Data taken from patent US20180092358A1, “HERBICIDAL MIXTURES” (Syngenta Participations AG, priority 2015, published 2018).

Experiments:
Assay type in all cases: in vivo
Setaria faberi [1] = assay: Post-emergence herbicidal activity (glasshouse); conditions: application post-emergence, 1000 g/Ha, evaluated after 13 days, scale 0-5
Procedure: (§1) Seeds of a variety of test species were sown in standard soil in pots. After 8 days cultivation (post-emergence) under controlled conditions in a glasshouse (at 24/16° C., day/night; 14 hours light; 65% humidity), the plants were sprayed with an aqueous spray solution derived from the formulation of the technical active ingredient in acetone/water (50:50) solution containing 0.5% Tween 20 (polyoxyethelyene sorbitan monolaurate, CAS RN 9005-64-5). The test plants were then grown in a glasshouse under controlled conditions (at 24/16° C., day/night; 14 hours light; 65% humidity) and watered twice daily. After 13 days, the test was evaluated (5=total damage to plant; 0=no damage to plant).

Abutilon theophrasti [2] = assay: Post-emergence herbicidal activity (glasshouse); conditions: application post-emergence, 1000 g/Ha, evaluated after 13 days, scale 0-5
Procedure: as §1

Amaranthus retroflexus [3] = assay: Post-emergence herbicidal activity (glasshouse); conditions: application post-emergence, 1000 g/Ha, evaluated after 13 days, scale 0-5
Procedure: as §1

Zea mays [4] = assay: Post-emergence herbicidal activity (glasshouse); conditions: application post-emergence, 1000 g/Ha, evaluated after 13 days, scale 0-5
Procedure: as §1

Echinochloa crus-galli [5] = assay: Post-emergence herbicidal activity (glasshouse); conditions: application post-emergence, 1000 g/Ha, evaluated after 13 days, scale 0-5
Procedure: as §1

Setaria faberi [6] = assay: Pre-emergence herbicidal activity (glasshouse); conditions: application pre-emergence, 1000 g/Ha, evaluated after 13 days, scale 0-5
Procedure: as §1, with “After” for “After 8 days”, “for one day (pre-emergence)” for “(post-emergence)”

Abutilon theophrasti [7] = assay: Pre-emergence herbicidal activity (glasshouse); conditions: application pre-emergence, 1000 g/Ha, evaluated after 13 days, scale 0-5
Procedure: as §1, with “After” for “After 8 days”, “for one day (pre-emergence)” for “(post-emergence)”

Amaranthus retroflexus [8] = assay: Pre-emergence herbicidal activity (glasshouse); conditions: application pre-emergence, 1000 g/Ha, evaluated after 13 days, scale 0-5
Procedure: as §1, with “After” for “After 8 days”, “for one day (pre-emergence)” for “(post-emergence)”

Zea mays [9] = assay: Pre-emergence herbicidal activity (glasshouse); conditions: application pre-emergence, 1000 g/Ha, evaluated after 13 days, scale 0-5
Procedure: as §1, with “After” for “After 8 days”, “for one day (pre-emergence)” for “(post-emergence)”

Echinochloa crus-galli [10] = assay: Pre-emergence herbicidal activity (glasshouse); conditions: application pre-emergence, 1000 g/Ha, evaluated after 13 days, scale 0-5
Procedure: as §1, with “After” for “After 8 days”, “for one day (pre-emergence)” for “(post-emergence)”

Alopecurus myosuroides [11] = assay: Post-emergence herbicidal activity (glasshouse); conditions: application post-emergence, 1000 g/Ha, evaluated after 13 days, scale 0-5
Procedure: as §1

Alopecurus myosuroides [12] = assay: Pre-emergence herbicidal activity (glasshouse); conditions: application pre-emergence, 1000 g/Ha, evaluated after 13 days, scale 0-5
Procedure: as §1, with “After” for “After 8 days”, “for one day (pre-emergence)” for “(post-emergence)”

CCO[C@@H]1C(O)N(c2cc(C(C)(C)C)on2)C(=O)N1C (single isomer, unassigned) [Compound 1.6]
damage to plant score, SETFA (Setaria faberi [1]): 5
damage to plant score, ABUTH (Abutilon theophrasti [2]): 5
damage to plant score, AMARE (Amaranthus retroflexus [3]): 5
damage to plant score, ZEAMX (Zea mays [4]): 4
damage to plant score, ECHCG (Echinochloa crus-galli [5]): 5
damage to plant score, SETFA (Setaria faberi [6]): 1
damage to plant score, ABUTH (Abutilon theophrasti [7]): 5
damage to plant score, AMARE (Amaranthus retroflexus [8]): 5
damage to plant score, ZEAMX (Zea mays [9]): 2
damage to plant score, ECHCG (Echinochloa crus-galli [10]): 4

CON1C(=O)N(c2cc(C(F)(F)F)ccn2)C(O)C1C (stereo not shown) [Compound 1.1, 4-hydroxy-1-methoxy-5-methyl-3-[4-(trifluoromethyl)-2-pyridyl]imidazolidin-2-one]
damage to plant score, SETFA (Setaria faberi [1]): 5
damage to plant score, ABUTH (Abutilon theophrasti [2]): 5
damage to plant score, AMARE (Amaranthus retroflexus [3]): 5
damage to plant score, ZEAMX (Zea mays [4]): 2
damage to plant score, ECHCG (Echinochloa crus-galli [5]): 5
damage to plant score, ALOMY (Alopecurus myosuroides [11]): 5
damage to plant score, SETFA (Setaria faberi [6]): 5
damage to plant score, ABUTH (Abutilon theophrasti [7]): 5
damage to plant score, AMARE (Amaranthus retroflexus [8]): 5
damage to plant score, ZEAMX (Zea mays [9]): 2
damage to plant score, ECHCG (Echinochloa crus-galli [10]): 4
damage to plant score, ALOMY (Alopecurus myosuroides [12]): 4

CC1C(O)N(c2cc(C(F)(F)F)ccn2)C(=O)N1C (stereo not shown) [Compound 1.2, 4-hydroxy-1,5-dimethyl-3-[4-(trifluoromethyl)-2-pyridyl]imidazolidin-2-one]
damage to plant score, SETFA (Setaria faberi [1]): 5
damage to plant score, ABUTH (Abutilon theophrasti [2]): 5
damage to plant score, AMARE (Amaranthus retroflexus [3]): 5
damage to plant score, ZEAMX (Zea mays [4]): 4
damage to plant score, ECHCG (Echinochloa crus-galli [5]): 5
damage to plant score, ALOMY (Alopecurus myosuroides [11]): 5
damage to plant score, SETFA (Setaria faberi [6]): 5
damage to plant score, ABUTH (Abutilon theophrasti [7]): 5
damage to plant score, AMARE (Amaranthus retroflexus [8]): 5
damage to plant score, ZEAMX (Zea mays [9]): 3
damage to plant score, ECHCG (Echinochloa crus-galli [10]): 4
damage to plant score, ALOMY (Alopecurus myosuroides [12]): 4

CCOC1C(O)N(c2cc(C(F)(F)F)ccn2)C(=O)N1C (stereo not shown) [Compound 1.3, 5-ethoxy-4-hydroxy-1-methyl-3-[4-(trifluoromethyl)-2-pyridyl]imidazolidin-2-one]
damage to plant score, SETFA (Setaria faberi [1]): 5
damage to plant score, ABUTH (Abutilon theophrasti [2]): 5
damage to plant score, AMARE (Amaranthus retroflexus [3]): 5
damage to plant score, ZEAMX (Zea mays [4]): 4
damage to plant score, ECHCG (Echinochloa crus-galli [5]): 5
damage to plant score, ALOMY (Alopecurus myosuroides [11]): 5
damage to plant score, SETFA (Setaria faberi [6]): 5
damage to plant score, ABUTH (Abutilon theophrasti [7]): 5
damage to plant score, AMARE (Amaranthus retroflexus [8]): 5
damage to plant score, ZEAMX (Zea mays [9]): 3
damage to plant score, ECHCG (Echinochloa crus-galli [10]): 5
damage to plant score, ALOMY (Alopecurus myosuroides [12]): 4

CN1CC(O)N(c2cc(C(F)(F)F)ccn2)C1=O (stereo not shown) [Compound 1.4, 4-hydroxy-1-methyl-3-[4-(trifluoromethyl)-2-pyridyl]imidazolidin-2-one]
damage to plant score, SETFA (Setaria faberi [1]): 5
damage to plant score, ABUTH (Abutilon theophrasti [2]): 5
damage to plant score, AMARE (Amaranthus retroflexus [3]): 5
damage to plant score, ZEAMX (Zea mays [4]): 5
damage to plant score, ECHCG (Echinochloa crus-galli [5]): 5
damage to plant score, ALOMY (Alopecurus myosuroides [11]): 5
damage to plant score, SETFA (Setaria faberi [6]): 4
damage to plant score, ABUTH (Abutilon theophrasti [7]): 5
damage to plant score, AMARE (Amaranthus retroflexus [8]): 5
damage to plant score, ZEAMX (Zea mays [9]): 3
damage to plant score, ECHCG (Echinochloa crus-galli [10]): 5
damage to plant score, ALOMY (Alopecurus myosuroides [12]): 4

CC1C(O)N(c2cc(C(F)(F)F)n(C)n2)C(=O)N1C (stereo not shown) [Compound 1.5, 4-hydroxy-1,5-dimethyl-3-[1-methyl-5-(trifluoromethyl)pyrazol-3-yl]imidazolidin-2-one]
damage to plant score, SETFA (Setaria faberi [1]): 5
damage to plant score, ABUTH (Abutilon theophrasti [2]): 5
damage to plant score, AMARE (Amaranthus retroflexus [3]): 5
damage to plant score, ZEAMX (Zea mays [4]): 4
damage to plant score, ECHCG (Echinochloa crus-galli [5]): 5
damage to plant score, ALOMY (Alopecurus myosuroides [11]): 5
damage to plant score, SETFA (Setaria faberi [6]): 4
damage to plant score, ABUTH (Abutilon theophrasti [7]): 5
damage to plant score, AMARE (Amaranthus retroflexus [8]): 5
damage to plant score, ZEAMX (Zea mays [9]): 4
damage to plant score, ECHCG (Echinochloa crus-galli [10]): 4
damage to plant score, ALOMY (Alopecurus myosuroides [12]): 4
